Assay results published in US20260248826A1, “DRUG COMBINATION FOR TREATMENT OF PANCREATIC CANCER” (priority 2023, published 2026).

How the values were obtained:
S2-VP10 tumor cells = assay: Orthotopic S2-VP10 pancreatic tumor model in athymic nude mice; type: in vivo
Protocol: A preclinical study of minnelide was conducted in mice. Female athymic nude mice (NCI nu/nu; 4 to 6 weeks old) were anesthetized with xylazine/ketamine, and S2-VP10 tumor cells embedded in Matrigel were implanted into the pancreatic tail (3×10^5 cells/mouse). Twelve days after tumor implantation (Day 0), animals were randomized to receive saline, nab-paclitaxel plus gemcitabine (Gem/Abx; 250/25 mg/kg), or minnelide plus nab-paclitaxel plus gemcitabine (Minn/Gem/Abx; 0.15/250/25 mg/kg or 0.21/250/25 mg/kg) (10 animals/group). Minnelide was administered once daily (QD) by oral gavage (PO). Treatment continued until Day 28 when animals were sacrificed.

[1] = Phase 1 study of minnelide given intravenously in patients with Advanced GI Tumors; type: in vivo, human; conditions: IV
Text: Intravenous Minnelide. Phase 1, Multi-Center, Open-Label, Dose-Escalation, Safety, Pharmacokinetic, and Pharmacodynamic Study of minnelide given intravenously daily for 21 days followed by 7 days off schedule in patients with Advanced GI Tumors. A second dosing schedule of minnelide given intravenously QD for 5 days with 2 days off for three weeks followed by a 7-day rest period was also explored during this study. A total of 45 patients enrolled in the Phase 1 study, however 3 patients were not dosed with study drug. The remaining 42 patients were dosed in the study. The primary reason for the discontinuation of treatment was disease progression. There were 6 deaths in the study, but these occurred after the study drug had ended and were within the 30-day follow-up period. […] One patient who died from respiratory failure, and this was also found to be not related to use of the study drug.

[2] = Phase 1 study of Minnelide Capsules alone or in combination with protein-bound paclitaxel in patients with Advanced Solid Tumors; type: in vivo, human
Text: Oral Minnelide. A Phase 1, Multi-Center, Open-Label, Dose-Escalation, Safety, Pharmacokinetic, and Pharmacodynamic Study of Minnelide™ Capsules given alone or in combination with protein-bound paclitaxel in patients with Advanced Solid Tumors.
A total of 51 patients have been enrolled and dosed in the Phase 1 study, of whom […] were evaluable for safety (34 in the monotherapy regimen and 16 in the combination regimen). Twenty-nine patients have completed treatment in the monotherapy regimen, and 6 dose escalations have occurred. In the monotherapy regimen, one DLT has been observed, which occurred in the 1.25 mg cohort. […] As a result of this DLT, and out of an abundance of caution, 3 additional patients were enrolled in the 1.0 mg cohort.
A total of 17 patients had been enrolled in combination therapy regimen. Two DLTs have been observed: one at the 0.25 mg minnelide and 125 mg/m^2 protein-bound paclitaxel dose level and one at the 0.25 mg minnelide and 100 mg/m^2 protein-bound paclitaxel dose level. […] A total of 2 SAEs occurred in this patient, neither of which were deemed related to the IP. As this was the first patient in the combination regimen to receive protein-bound paclitaxel with minnelide, the combination regimen was put on enrolment hold until further escalation parameters were introduced. The second DLT occurred in the first patient of the 0.25 mg minnelide and 100 mg/m^2 protein-bound paclitaxel cohort: a Grade 5 event of sepsis.

[3] = tested on: pancreatic and ovarian tumor cells; assay: In vitro antitumor activity (activated with alkaline phosphatase to release triptolide); type: cell-based
[4] = tested on: pancreatic and ovarian cancer; assay: Daily administration in models of pancreatic and ovarian cancer; type: in vivo; conditions: administered daily
[5] = Blood counts of patients during minnelide dosing and withholding; type: in vivo, human
Text: A drop in blood counts is usually seen within the first 5-7 days of the start of minnelide and resolves in 4-8 days of withholding of minnelide.
CBC with differential was done on days 1, 8, 15, 22 and more frequently as clinically indicated. Patient were hospitalized for close monitoring when the ANC level was <1000 mm^3 (grade 3 or higher) or platelet was <100,000 cells/mm^3 at any time. Minnelide™ Capsules would not resume until the ANC level was ≥1500 mm^3 or platelet was ≥100,000 cells/mm^3.

[6] = tested on: extracellular matrix (ECM) of the pancreatic tumors; conditions: by downregulating hyaluronan synthesis and preventing collagen cross linking; cited from earlier work
[7] = tested on: transforming growth factor-β (TGFβ) signaling in cancer associated fibroblasts (CAFs); conditions: dose of 0.2 mg/kg; cited from earlier work
[8] = tested on: MIA-PaCa2 and PANC-1 pancreatic cancer cell lines; conditions: after incubation with triptolide; cited from earlier work
[9] = tested on: S2-013, S2-VP10 and Hs766T; conditions: metastatic lines; cited from earlier work
[10] = tested on: pancreatic tumor cells and CAFs; conditions: cited from earlier work
[11] = Day 28, minnelide 0.15 mg/kg QD PO added to Gem/Abx 250/25 mg/kg, compared with Gem/Abx alone
[12] = Day 28, minnelide 0.21 mg/kg QD PO added to Gem/Abx 250/25 mg/kg, compared with Gem/Abx alone
[13] = overall, daily oral minnelide concurrently with Gem/Abx, compared with minnelide or Gem/Abx alone
[14] = oral, monotherapy and combination

## CC(C)[C@]12O[C@H]1[C@@H]1O[C@]13[C@]1(O[C@H]1C[C@H]1C4=C(CC[C@@]13C)C(=O)OC4)[C@@H]2OCOP(=O)([O-])[O-].[Na+].[Na+] [minnelide, disodium; [(1S,2S,4S,5S,7S,8R,9R,11S,13S)-1-methyl-17-oxo-7-propan-2-yl-3,6,10,16-tetraoxaheptacyclo[11.7.0.0^2,4.0^2,9.0^5.7.09^,11.0^14,18]icos-14 (18)-en-8-yl]oxymethyl phosphate]
S2-VP10 tumor cells; [11]
  tumor volumes: further reduced
  tumor weights: further reduced
S2-VP10 tumor cells; [12]
  tumor volumes: further reduced
  tumor weights: further reduced
S2-VP10 tumor cells; [13]
  tumor volumes: decreased
  tumor weights: decreased
[1]
  Anemia and thrombocytopenia Grade 3 and 4, drug related, patients: 22%
  Serious Adverse Events related to the study drug: six
  Serious Adverse Events, total: 28
  TEAEs leading to discontinuation probably related to study drug, considered DLTs: two
  neutropenia grade 3 and 4 of short duration, drug related: observed at all dose levels
  patients with Serious Adverse Events: 17
  patients with at least 1 AE considered related to the study drug: 32
  patients with neutropenic fever and neutropenic infection, drug related: three
[1]; 42 patients dosed, within 30-day follow-up, not related to study drug
  deaths in the study: 6
[1]; all Grade 3
  patients who discontinued the study drug due to TEAEs: 3
[1]; hypoalbuminemia, anemia, hypoproteinemia, fatigue, neutropenia, leukopenia, thrombocytopenia, nausea, hypocalcemia, diarrhea, hyperphosphatemia, constipation, vomiting, hyponatremia, lymphopenia, abdominal pain, dehydration, hyperglycemia, peripheral edema, hypophosphatemia, headache
  incidence of most commonly reported TEAEs regardless of causality: > 20%
[1]; nausea, vomiting, diarrhea, constipation, anorexia, stomatitis, cerebellar toxicity, embolism, dyspnea
  other possibly related side effects of any grade, patients: ≤ 3%
[1]; not receiving treatment
  time to resolution of neutropenia: within a couple of days
[2]; 0.25 mg minnelide and 100 mg/m^2 protein-bound paclitaxel cohort
  DLTs in five additional patients: no DLTs observed
[2]; 0.25 mg minnelide and 100 mg/m^2 protein-bound paclitaxel dose level, Grade 5 sepsis
  DLTs observed: one
[2]; 0.25 mg minnelide and 125 mg/m^2 protein-bound paclitaxel dose level
  DLTs observed: one
[2]; combination regimen with protein-bound paclitaxel, 17 patients
  DLTs observed: Two
[2]; oral monotherapy regimen, in the 1.25 mg cohort, Grade 5 sepsis
  DLT observed: one
[2]; oral, combination therapy with protein-bound paclitaxel
  related SAEs by type: one event each of Grade 5 sepsis and Grade 2 esophagitis
[2]; [14]
  SAEs related to the investigational product: 8
  SAEs, total: 45
  patients with SAEs: 25
[2]; oral, patients on monotherapy
  related SAEs by type: 1 event each of Grade 5 sepsis, Grade 4 sepsis, Grade 3 nausea, Grade 3 polymicrobial bacteraemia, Grade 3 intractable nausea, Grade 3 hypokalaemia, and Grade 2 enteritis
[2]; regardless of causality
  AE incidence: Lower extremity oedema: 24%
  AE incidence: abdominal distension: 12%
  AE incidence: abdominal pain: 30%
  AE incidence: anemia: 18%
  AE incidence: back pain: 12%
  AE incidence: chills: 12%
  AE incidence: constipation: 24%
  AE incidence: dehydration: 18%
  AE incidence: dizziness: 12%
  AE incidence: dyspnoea: 12%
  AE incidence: fatigue: 18%
  AE incidence: gastroesophageal reflux disease: 12%
  AE incidence: leukopenia: 12%
  AE incidence: local swelling: 18%
  AE incidence: nausea: 24%
  AE incidence: neutropenia: 30%
  AE incidence: neutrophil count decreased: 13%
  AE incidence: pain: 12%
  AE incidence: pleural effusion: 12%
  AE incidence: pyrexia: 24%
  AE incidence: skin irritation: 12%
  AE incidence: vomiting: 18%
[3]
  antitumor activity in vitro: potent antitumor activity
[4]
  animal survival: markedly improved
  tumor volumes: significantly reduced
  tumor weights: significantly reduced
[5]; from the start of minnelide
  time to drop in blood counts: 5 to 7 days
[5]; withholding of minnelide
  time to resolution of drop in blood counts: 4 to 8 days
[6]
  extracellular matrix (ECM) of pancreatic tumors: depleted
[7]
  TGFβ signaling in CAFs: disrupts

## CC(C)[C@]12O[C@H]1[C@@H]1O[C@]13[C@]1(O[C@H]1C[C@H]1C4=C(CC[C@@]13C)C(=O)OC4)[C@@H]2O [triptolide]
[8]
  caspase-3 activity: significantly increased
  cytochrome c release from mitochondria into the cytosol: significantly increased
[9]
  autophagic cell death: induces autophagic cell death
[10]; both cell types, mRNA and protein levels
  SE-associated genes (BRD4, MYC, RNA Pol II, Collagen 1) expression: downregulation
[10]; both pancreatic tumor cells and CAFs
  cytotoxicity: cytotoxic
